Measured values: ChEMBL document CHEMBL5537180, “Discovery of Novel Aminobutanoic Acid-Based ASCT2 Inhibitors for the Treatment of Non-Small-Cell Lung Cancer” (J Med Chem, 2024)
The source made the active and inactive calls. The calls are words filed in the database; no cut-off is given here.

Legend:
[1] = Tmax in Sprague-Dawley rat at 10 mg/kg, ip incubated for 24 hrs by LC-MS/MS analysis; assay type: ADME, organism-based; conditions: in vivo
[2] = system: A549; assay: Induction of apoptosis in human A549 cells assessed as caspase 3 activation at 5 to 10 uM incubated for 24 hrs by Western blot analysis; assay type: functional, cell-based; conditions: dose 5-10 µM
[3] = biological target: T1, Neutral amino acid transporter B(0) (Homo sapiens) (UniProt Q15758); assay: Inhibition of ASCT2 in human A549 cells assessed as reduction in [13C]-Gln uptake at 50 uM relative to control; assay type: cell-based
T1 sequence (whole entry): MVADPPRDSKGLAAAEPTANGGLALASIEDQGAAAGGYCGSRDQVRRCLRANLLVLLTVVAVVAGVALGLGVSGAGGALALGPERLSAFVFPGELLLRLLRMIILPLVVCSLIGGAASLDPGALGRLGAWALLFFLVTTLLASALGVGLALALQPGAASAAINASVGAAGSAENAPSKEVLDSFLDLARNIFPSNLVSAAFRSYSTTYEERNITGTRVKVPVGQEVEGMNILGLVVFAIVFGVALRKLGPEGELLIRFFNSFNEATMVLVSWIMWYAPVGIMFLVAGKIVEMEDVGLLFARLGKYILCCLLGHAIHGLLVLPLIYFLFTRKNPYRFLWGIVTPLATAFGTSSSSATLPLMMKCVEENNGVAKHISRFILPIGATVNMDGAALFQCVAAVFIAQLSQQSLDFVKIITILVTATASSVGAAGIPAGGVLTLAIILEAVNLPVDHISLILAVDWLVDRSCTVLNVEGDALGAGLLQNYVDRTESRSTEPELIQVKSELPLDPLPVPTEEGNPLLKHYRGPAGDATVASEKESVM

[4] = Toxicity in BALB/c nude mouse assessed as effect on body weight at 25 to 50 mg/kg, ip measured daily for 3 weeks; assay type: organism-based; conditions: in vivo, 504 h, dose 25-50 mg/kg
[5] = Apparent volume of distribution with respect to the bioavailability in Sprague-Dawley rat at 10 mg/kg, ip incubated for 24 hrs by LC-MS/MS analysis; assay type: ADME, organism-based; conditions: in vivo, read-out: Vc/F
[6] = system: NSCLC; assay: Antiproliferative activity against human NSCLC cells cultured as H1975 organoids assessed as cell viability incubated for 96 hrs by Celltiter-glo viability assay; assay type: functional, cell-based
[7] = system: A549; assay: Induction of autophagy in human A549 cells assessed as increase in LC3 II expression at 5 to 10 uM measured after 24 hrs by Western blot analysis; assay type: functional, cell-based; conditions: dose 5-10 µM
[8] = Metabolic stability in rat liver microsomes assessed as half life; assay type: ADME, Microsome
[9] = system: A549; assay: Antitumor activity against human A549 cells xenografted in BALB/c nude mouse assessed as inhibition of tumor volume at 25 to 50 mg/kg, ip measured daily for 3 weeks; assay type: functional, organism-based; conditions: dose 25-50 mg/kg
[10] = Cmax in Sprague-Dawley rat at 10 mg/kg, ip incubated for 24 hrs by LC-MS/MS analysis; assay type: ADME, organism-based; conditions: in vivo
[11] = system: A549; assay: Antitumor activity against human A549 cells xenografted in BALB/c nude mouse assessed as tumor growth inhibition at 25 mg/kg, ip measured daily for 3 weeks relative to control; assay type: functional; conditions: A549, 504 h, read-out: TGI
[12] = Metabolic stability in rat liver microsomes assessed as intrinsic clearance; assay type: ADME, Microsome; conditions: read-out: CLH
[13] = biological target: Large neutral amino acids transporter small subunit 1 (Homo sapiens) (UniProt Q01650); assay: Inhibition of LAT1 (unknown origin) overexpressed in human A549 cells assessed as reduction in [13C]-Gln uptake preincubated for 5 mins followed by substrate addition and measured after 15 mins; assay type: cell-based; conditions: time 20.0 min
Large neutral amino acids transporter small subunit 1 (Homo sapiens), sequence (Q01650 whole entry): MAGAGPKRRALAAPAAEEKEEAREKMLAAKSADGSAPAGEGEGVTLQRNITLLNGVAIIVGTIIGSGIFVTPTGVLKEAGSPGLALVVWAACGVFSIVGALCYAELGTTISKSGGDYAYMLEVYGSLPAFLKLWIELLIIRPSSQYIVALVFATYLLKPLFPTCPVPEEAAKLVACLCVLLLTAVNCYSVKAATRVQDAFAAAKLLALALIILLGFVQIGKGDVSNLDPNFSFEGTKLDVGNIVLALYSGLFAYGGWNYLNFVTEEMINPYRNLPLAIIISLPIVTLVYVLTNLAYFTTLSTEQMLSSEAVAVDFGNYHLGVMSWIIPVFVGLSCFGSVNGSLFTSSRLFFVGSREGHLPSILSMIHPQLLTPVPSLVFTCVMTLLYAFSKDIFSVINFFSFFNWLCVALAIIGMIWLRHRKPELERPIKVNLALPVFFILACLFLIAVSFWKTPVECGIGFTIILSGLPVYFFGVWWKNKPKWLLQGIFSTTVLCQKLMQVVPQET

[14] = system: A549; assay: Induction of apoptosis in human A549 cells measured after 24 hrs by annexin-V/PI staining based flow cytometry analysis; assay type: functional, cell-based; conditions: dose 5-10 µM
[15] = system: A549; assay: Antiproliferative activity against human A549 cells assessed as reduction in cell viability after 72 hrs by MTT assay; assay type: functional, cell-based; conditions: A549, 72 h
[16] = Toxicity in BALB/c nude mouse assessed as effect on lung at 25 to 50 mg/kg, ip measured after 3 weeks by H and E staining based analysis; assay type: organism-based; conditions: in vivo, 504 h, dose 25-50 mg/kg
[17] = system: A549; assay: Inhibition of Gln uptake in human A549 cells assessed as reduction in intracellular glutamate level incubated for 24 hrs by LC-MS/MS analysis; assay type: functional, cell-based
[18] = system: A549; assay: Inhibition of Gln uptake in human A549 cells assessed as reduction in citrate level incubated for 24 hrs by LC-MS/MS analysis; assay type: functional, cell-based
[19] = system: Cell membrane; assay: Induction of mitochondrial membrane potential loss in human A549 cells assessed as […] aggregates at 5 uM incubated for 24 hrs by JC-1 staining based flow cytometry analysis (reference value: 93.8%); assay type: cell membranes
[20] = system: A549; assay: Inhibition of colony formation in human A549 cells measured after 7 to 10 days by crystal violet staining analysis; assay type: functional, cell-based; conditions: dose 5-10 µM, time 7-10 day
[21] = system: A549; assay: Antitumor activity against human A549 cells xenografted in BALB/c nude mouse assessed as decrease in tumor weight at 25 to 50 mg/kg, ip measured daily for 3 weeks; assay type: functional, organism-based; conditions: dose 25-50 mg/kg
[22] = AUC (0 to t) in Sprague-Dawley rat at 10 mg/kg, ip incubated for 24 hrs by LC-MS/MS analysis; assay type: ADME, organism-based; conditions: in vivo
[23] = biological target: T2, Neutral amino acid transporter B(0) (Homo sapiens, UniProt Q15758); assay: Inhibition of ASCT2 in human A549 cells assessed as reduction in glutamine uptake preincubated for 5 mins followed by substrate addition and measured after 15 mins; assay type: cell-based
T2 sequence (Q15758 whole entry): T1 sequence (whole entry)

[24] = Toxicity in BALB/c nude mouse assessed as effect on spleen at 25 to 50 mg/kg, ip measured after 3 weeks by H and E staining based analysis; assay type: organism-based; conditions: in vivo, 504 h, dose 25-50 mg/kg
[25] = biological target: T2, Neutral amino acid transporter B(0); assay: Inhibition of ASCT2 in HEK293 cells assessed as reduction in glutamine uptake preincubated for 5 mins followed by substrate addition and measured after 15 mins; assay type: cell-based
[26] = system: A549; assay: Inhibition of AKT/mTORC signalling in human A549 cells assessed as decrease in p70S6K level at 5 to 10 uM measured after 24 hrs by Western blot analysis; assay type: cell-based; conditions: dose 5-10 µM
[27] = system: A549; assay: Induction of apoptosis in human A549 cells assessed as downregulation of c-Myc expression at 5 to 10 uM incubated for 24 hrs by Western blot analysis; assay type: functional, cell-based; conditions: dose 5-10 µM
[28] = AUC (0 to infinity) in Sprague-Dawley rat at 10 mg/kg, ip incubated for 24 hrs by LC-MS/MS analysis; assay type: ADME, organism-based; conditions: in vivo
[29] = system: A549; assay: Induction of apoptosis in human A549 cells assessed as caspase 9 activation at 5 to 10 uM incubated for 24 hrs by Western blot analysis; assay type: functional, cell-based; conditions: dose 5-10 µM
[30] = system: Cell membrane; assay: Induction of mitochondrial membrane potential loss in human A549 cells assessed as […] aggregates incubated for 24 hrs by JC-1 staining based flow cytometry analysis; assay type: cell membranes; conditions: dose 5-10 µM
[31] = system: A549; assay: Inhibition of AKT/mTORC signalling in human A549 cells assessed as decrease in AKT phosphorylation level at 5 to 10 uM measured after 24 hrs by Western blot analysis; assay type: cell-based; conditions: dose 5-10 µM
[32] = Half life in Sprague-Dawley rat at 10 mg/kg, ip incubated for 24 hrs by LC-MS/MS analysis; assay type: ADME, organism-based; conditions: in vivo
[33] = system: A549; assay: Inhibition of Gln uptake in human A549 cells assessed as reduction in malate level incubated for 24 hrs by LC-MS/MS analysis; assay type: functional, cell-based

With `CC(C)(C)c1ccc(OCC#Cc2ccccc2)c(CN(CC[C@H](N)C(=O)O)Cc2cc(C(C)(C)C)ccc2OCC#Cc2ccccc2)c1` the Tmax [1] was 5.33 h, the Activity [2] was “Active” and the inhibition [3] was 55.6%. The Activity [4] was “Non-Toxic”, the Vd/F [5] was 20 L/kg and the IC50 [6] was 1.09 µM. For the same compound, the Activity [7] was “Active”, the half-life [8] was 2.78 h and the Activity [9] was “Active”. The Cmax [10] was 874 ng/mL, the inhibition in vivo at 25 mg/kg [11] was 70% and the microsomal CLint [12] was 8.27 µL/min/mg. For the same compound, the inhibition [13] was “inactive”, the Activity [14] was “Dose-Dependent Effect” and the IC50 [15] was 5.83 µM. The Activity [16] was “Toxic”, the inhibition [17] was “Active” and the inhibition [18] was “Active”. The Activity [19] was 76.1%, the inhibition [20] was “Dose-Dependent Effect” and the Activity [21] was “Active”. For the same compound, the AUC(0-t) at 24 h [22] was 13800 ng·h/mL, the IC50 [23] was 19.2 µM and the Activity [24] was “Toxic”. For the same compound, the IC50 [25] was 5.14 µM, the inhibition [26] was “Active” and the Activity [27] was “Active”. The AUC(0-inf) [28] was 14500 ng·h/mL, the Activity [29] was “Active” and the Activity [30] was “Dose-Dependent Effect”. For the same compound, the inhibition [31] was “Active”, the half-life [32] was 19.4 h and the inhibition [33] was “Active”.
In the case of `N[C@@H](CCN(Cc1ccccc1OCC#Cc1ccc(Cl)cc1)Cc1ccccc1OCC#Cc1ccc(Cl)cc1)C(=O)O`, the Tmax [1] is reported as 1.17 h, the Activity [2] is reported as “Active” and the inhibition [3] is reported as 90.8%. The Activity [4] was “Non-Toxic”, the Vd/F [5] was 49.5 L/kg and the IC50 [6] was 8.45 µM. The Activity [7] was “Active”, the half-life [8] was 0.619 h and the Activity [9] was “Active”. It also gave a Cmax [10] of 323 ng/mL, an inhibition in vivo at 25 mg/kg [11] of 65% and a microsomal CLint [12] of 37.5 µL/min/mg. For the same compound, the inhibition [13] was “inactive”, the Activity [14] was “Dose-Dependent Effect” and the IC50 [15] was 10.3 µM. For the same compound, the Activity [16] was “Toxic”, the inhibition [17] was “Active” and the inhibition [18] was “Active”. For the same compound, the Activity [19] was 87.8%, the inhibition [20] was “Dose-Dependent Effect” and the Activity [21] was “Active”. For the same compound, the AUC(0-t) at 24 h [22] was 2670 ng·h/mL, the IC50 [23] was 5.6 µM and the Activity [24] was “Toxic”. The IC50 [25] was 3.5 µM, the inhibition [26] was “Active” and the Activity [27] was “Active”. For the same compound, the AUC(0-inf) [28] was 2820 ng·h/mL, the Activity [29] was “Active” and the Activity [30] was “Dose-Dependent Effect”. For the same compound, the inhibition [31] was “Active”, the half-life [32] was 9.41 h and the inhibition [33] was “Active”.
